Consider three substances from patent publication US6610289B2, “Mutated herpes simplex virus type 1 thymidine kinases and uses thereof” (The Board of Trustees of the University of Arkansas, priority 1998, dated 2003).

Where two headings read alike, the source gives them in different places.

For data set [1], the system named is HSV-1 TK. The data set can be described thus: Substrate screen: phosphorylation of thymidine, TMP, GCV, ACV, dC, AZT by partially purified HSV-1 TKs. Format: biochemical, herpes simplex virus type 1. The note with it: for Product formation ACVMP: substrate ACV 50 μM; for Product formation AZTMP: substrate AZT 200 μM; for Product formation GCVMP: substrate GCV 50 μM; for Product formation TDP (TMPK activity): substrate TMP 20 μM; for Product formation dCMP: substrate dC 200 μM; for Product formation TMP: substrate thymidine 4 μM. The protocol: The activity of the purified HSV-1 TK was determined using the following standard reaction mixture for thymidine as a substrate (12): 3 μg of protein, 4 μM [^3H-methyl]thymidine (0.1 mCi/mmol), 20 mM potassium phosphate, pH 7.6, 1 mM DTT, 5 mM ATP, 5 mM MgCl2, 25 mM NaF, 40 mM KCl, and 0.5 mg/ml BSA in a total volume of 25 μl for 10 minutes at 37° C. To identify phosphorylated products, 20 μl of the reaction mixture was loaded onto a DE-81 filter and dried, washed once in 1 mM ammonium formate, twice more in 95% ethanol, and counted for radioactivity (12). Radioactivity was determined using an LKB 1214 Rackbeta liquid scintillation counter and corrected for background using controls with enzyme incubated in the absence of ATP. For TMPK activity, 20 μM [^3H-methyl]TMP was substituted for thymidine in the above assay mixture, and [^3H]TDP product was determined by separation from [^3H]TMP on thin layer PEI-cellulose plates developed in 0.35M LiCl (21). Amount of product converted to TDP was quantitated by scintillation counting of the excised TMP and TDP spots. The filter binding assay was used to quantitate the phosphorylation of [^3H]dC (200) μM and [^3H]AZT (200 μM) with the four enzymes. To compare relative enzymatic activities for [^3H]GCV (50 μM) and [^3H]ACV (50 μM), reactions were loaded onto small DE-52 columns packed in Pasteur pipettes as previously described (22).
As an initial screen for activity, each expressed HSV-1 TK enzyme was assayed for phosphorylation of the following substrates: thymidine (4 μM), TMP (20 μM), ACV (50 μM), GCV (50 μM), deoxycytidine (dC, 200 μM), or 3′-azido-2′,3′dideoxythymidine (AZT, 200 μM). Enzymatic conditions for optimal wild-type HSV-1 TK activities were utilized, thus results presented in Table 1 for each substrate were normalized to 100% values for comparative purposes. As expected, the wild-type Gln-125 HSV-1 TK efficiently phosphorylated each of these substrates. For each mutant, there was a striking decrease in their ability to phosphorylate pyrimidine nucleosides, and minimal TMPK activity for the TMP substrate.

Data set [2] deals with HCT-116 cells. The data set is described as follows: MTT cell viability, sensitivity to GCV killing, HCT-116 cell lines expressing HSV-1 TKs. Type of data set: cell-based, human. The following applies: HCT-116, GCV 0-5 μM, 4 days, FIG. 3B. The protocol:
(§1) Cells were plated in triplicate and exposed to 0, 0.05, 0.5 or 5 μM GCV for four days. Cell viabilities were determined using MTT dye. […] FIG. 3A: NIH3T3 cell lines, FIG. 3B: HCT-116 cell lines; parental cells (noTK, dark bands); Asp125TK (Asp-#, brick band); Glu-125TK (Glu-#, cross-hatch bands); Asn-125TK (Asn-#, gray bands); wild-type HSV-1 TK (WT-#, striped bands).
(§2) A Moloney murine leukemia virus derived plasmid for the expression of HSV-TK, termed pLENTK, has been previously constructed (24). A unique BspEI-MluI restriction fragment within the HSV-TK sequence of pLENTK contains the Gln-125 mutation site. This fragment was removed from wild-type plasmid and replaced with the analogous fragments encoding each mutant. […] Along with wild-type HSV-1 TK plasmid, each mutant-TK plasmid was transfected individually into the murine fibroblast cell line, NIH 3T3, and the human colon tumor cell line, HCT-116, using lipofectin reagent (GIBCO/BRL) (2 μg plasmid, 14 μl lipid per 1×10^6 cells). Cells were maintained in RPMI 1640 media and selected with G418 (200 μg/ml for 2 weeks) as previously described (24). At least eight individual G418 resistant cell clones were picked and grown up for further characterization. Each clone was screened initially for growth inhibition by 25 μM GCV. Those clones that were sensitive were further analyzed for HSV-TK protein expression by Western blot analysis with a polyclonal, rabbit anti-HSV-TK antibody (a gift from Dr. Margaret Black). For each clone, cell numbers were normalized to 1×10^6, and equal protein loading was confirmed for each sample by gel staining. Blotted HSV-1 TK protein bands were visualized on film using ECL chromophore reagents (Amersham). For analysis of GCV sensitivity of different clones, NIH3T3 and HCT-116 cell sets were seeded in 96 well plates in 0.1 ml media (15,000 cells/well). The next day, a dose range of GCV (0.005 to 5 mM, n=3) was added in 0.1 ml media. After 4 days, MTT ([…]) was added for 1.5 hours, followed by DMSO solubilization of the cells and absorbance reading at 540 nm (25).
cDNA for each mutant was incorporated into a Moloney murine leukemia virus plasmid (24). The plasmids for wild-type HSV-1 TK and each mutant were individually transfected into either NIH3T3 cells or the human colon tumor cell line, HCT-116. Following drug selection in G418, individual cell clones were evaluated for sensitivity to GCV and relative levels of HSV-1 TK expression. Using an HSV-1 TK antibody and extracts normalized by protein and cell number, the relative expression levels of HSV-1 TK in each cell clone were determined.

Another data set deals with NIH3T3 cells. The data set can be described thus: MTT cell viability, sensitivity to GCV killing, NIH3T3 cell lines expressing HSV-1 TKs. The following applies: NIH3T3, GCV 0-5 μM, 4 days, FIG. 3A. Type of data set: cell-based, murine. The protocol: as §1
as §2, with “For each clone, cell numbers were normalized to 1×10^6, and equal protein loading was confirmed for each sample by gel staining. Blotted HSV-1 TK protein bands were visualized on film using ECL chromophore reagents (Amersham). For analysis of GCV sensitivity of different clones, NIH3T3 and HCT-116 cell sets were seeded in 96 well plates in 0.1 ml media (15,000 cells/well). The next day, a dose range of GCV (0.005 to 5 mM, n=3) was added in 0.1 ml media.” left out
cDNA for each mutant was incorporated into a Moloney murine leukemia virus plasmid (24). […] Following drug selection in G418, individual cell clones were evaluated for sensitivity to GCV and relative levels of HSV-1 TK expression. Using an HSV-1 TK antibody and extracts normalized by protein and cell number, the relative expression levels of HSV-1 TK in each cell clone were determined.

Data set [3] deals with HSV-1 TK. Type of data set: biochemical, herpes simplex virus type 1. The note with it: for Decrease in kcat for GCV compared to wild-type enzyme: substrate GCV. The protocol: For determination of Km values of thymidine and GCV for the four enzymes, the filter binding assay was utilized. The basic reaction components were as above, and the following enzyme concentrations, substrate ranges and times were used under linear initial velocity conditions: for [^3H]thymidine: parent Gln-125TK: 0.1 μg TK, 0.1-4 μM, 10 min; Asn-125TK: 0.2 μg TK, 0.25-10 μM, 15 min; Asp-125TK: 4 μg TK, 0.1-2.5 μM, 30 min; Glu-125TK 0.5 μg TK, 0.5-2.5 μM, 15 min. For [^3H]GCV: parent Gln-125TK: 2 μg TK, 5-100 μM, 15 min; Asn-125TK: 0.6 μg TK, 0.5-15 μM, 15 min; Asp-125TK: Not determined; Glu-125TK 4 μg TK, 50-1000 μM, 25 min. Each reaction was done in triplicate. For calculation of kinetic constants, non-linear regression Michaelis-Menten analyses were done using PSI-PLOT version 5.0 (Poly Software International).
Unlike the substrate screening assays presented in Table 1, linear velocity conditions for each enzyme and substrate were established prior to Km determinations.

In data set [4] the test system is HCT-116 cells. The data set can be described thus: DAPI-staining of apoptotic cells. The note with it: 25 μM GCV, 36 or 84 hrs, FIG. 7. Format: cell-based, human.
Method: The HCT-116 cells expressing wild-type HSV-1 TK (FIG. 7A), Asn-125TK (FIG. 7B), or Glu-125TK (FIG. 7C) were grown on chamber slides and incubated with 25 μM GCV for 36 or 84 hours. Control cultures for each cell line without GCV addition (top row) were evaluated after 84 hours. At the indicated time point, cells were fixed in methanol, stained with DAPI, and nuclei visualized by fluorescent microscopy. Each image is magnified 40×.
Parental HCT-116 cells and each HSV-1 TK expressing cell line were plated (5×10^4 cells/well) in 8-well plastic chamber slides (Lab-Tek) and treated plus or minus 25 mM GCV for 36 or 84 hrs. At either time point, cells were washed with phosphate-buffered saline followed by staining in 1 μg/ml DAPI (4′,6′-diamidine-2′-phenylindoledihydrochloride) in 100% methanol at 37° C. for 10 min. After rinsing, the stained cells were visualized with a Zeiss flourescent microscope at 40× magnification with a DAPI-specific filter.
Where [5] appears, read: substrate ganciclovir, read-out: Km ganciclovir.
Where [6] appears, read: substrate thymidine, read-out: Km thymidine.

Regarding Asn-125, in the data set with HSV-1 TK [1] (GCV 50 μM, ACV 50 μM), the “Metabolism of GCV and ACV (in words)” value was “retained most of these phosphorylation activities”. In the data set on HSV-1 TK [1], the “Product formation ACVMP” value is 92 % of wild-type Gln-125, the “Product formation AZTMP” value is given as 9 % of wild-type Gln-125, the “Product formation GCVMP” value was 85 % of wild-type Gln-125 and the “Product formation TDP (TMPK activity)” value is 6 % of wild-type Gln-125. In the data set on HSV-1 TK [1], the “Product formation dCMP” value is on record as 0.2 % of wild-type Gln-125 and the “Product formation TMP” value is 22 % of wild-type Gln-125. Further, the “Dose dependent cell killing by GCV (cell viability, MTT)” value (“Dose dependent cell killing by GCV” below) in the data set with HCT-116 cells [2] is listed as “as effective as wild-type HSV-1 TK”. The “Dose dependent cell killing by GCV” value in the data set on HCT-116 cells [2] (listed as Asn-125TK) was “proportionally more cell killing”. In addition, the “Dose dependent cell killing by GCV” value with NIH3T3 cells is “proportionally more cell killing”. Moreover, the “Decrease in kcat for GCV compared to wild-type enzyme” value with HSV-1 TK [3] is listed as 6 fold. In the data set on HSV-1 TK [3] (substrate ganciclovir), the kcat ganciclovir is 0.08 s⁻¹. For the same substance, the Km in the data set on HSV-1 TK [3] (setting [5]) was 50 µM. Besides, in the data set with HSV-1 TK [3] (substrate thymidine), the “Change of kcat for thymidine relative to wild-type (in words)” value is given as “doubled”, the “Increase of Km for thymidine relative to wild-type enzyme” value was ~20 fold and the kcat thymidine came out at 0.13 s⁻¹. Besides, the Km in the data set with HSV-1 TK [3] (setting [6]) stood at 20 µM. The “Nuclear morphology of DAPI-stained nuclei after GCV” value (“Nuclear morphology” below) in the data set on HCT-116 cells [4] is “progressive increases in condensed and fragmented nuclei characteristic of apoptosis”.
In the case of “Gln-125 (WT): wild-type herpes simplex virus type 1 thymidine kinase with glutamine at position 125, parent enzyme [reference compound]”, in the data set on HSV-1 TK [1], the “Product formation ACVMP” value is on record as 100 % of wild-type Gln-125, the “Product formation AZTMP” value was 100 % of wild-type Gln-125, the “Product formation GCVMP” value was 100 % of wild-type Gln-125 and the “Product formation TDP (TMPK activity)” value is listed as 100 % of wild-type Gln-125. Also, in the data set with HSV-1 TK [1], the “Product formation dCMP” value is 100 % of wild-type Gln-125 and the “Product formation TMP” value was 100 % of wild-type Gln-125. Moreover, the “Dose dependent cell killing by GCV” value with HCT-116 cells [2] (listed as Gln-125) is reported as “as effective as wild-type HSV-1 TK”. Moreover, the “Dose dependent cell killing by GCV” value in the data set with HCT-116 cells [2] (listed as wild-type) is given as “proportionally more cell killing”. The “Dose dependent cell killing by GCV” value in the data set on NIH3T3 cells was “proportionally more cell killing”. Also, the kcat ganciclovir in the data set on HSV-1 TK [3] (substrate ganciclovir) was 0.47 s⁻¹. Also, the Km in the data set on HSV-1 TK [3] (setting [5]) is 69 µM. Further, in the data set with HSV-1 TK [3] (substrate thymidine), the kcat thymidine amounted to 0.06 s⁻¹. In addition, in the data set on HSV-1 TK [3] (setting [6]), the Km came out at 0.9 µM. The “Nuclear morphology” value in the data set on HCT-116 cells [4] was “progressive increases in condensed and fragmented nuclei characteristic of apoptosis”.
Glu-125: in the data set on HSV-1 TK [1], the “Product formation ACVMP” value is on record as 7 % of wild-type Gln-125, the “Product formation AZTMP” value is reported as 48 % of wild-type Gln-125, the “Product formation GCVMP” value is on record as 5 % of wild-type Gln-125 and the “Product formation TDP (TMPK activity)” value is 7 % of wild-type Gln-125. Also, in the data set on HSV-1 TK [1], the “Product formation dCMP” value is recorded as 0.2 % of wild-type Gln-125 and the “Product formation TMP” value is reported as 43 % of wild-type Gln-125. In addition, in the data set with HCT-116 cells [2] (listed as Glu-125 HSV-1 TK), the “Dose dependent cell killing by GCV” value was “just as sensitive to GCV killing”. The “Dose dependent cell killing by GCV” value in the data set with HCT-116 cells [2] (listed as Glu-125TK) was “cell viabilities dropped precipitously”. Also, in the data set with NIH3T3 cells, the “Dose dependent cell killing by GCV” value was “minimal cell killing”. Also, in the data set on HSV-1 TK [3], the “Decrease in kcat for GCV compared to wild-type enzyme” value is listed as 12 fold. For the same substance, the kcat ganciclovir with HSV-1 TK [3] (substrate ganciclovir) is 0.04 s⁻¹. Also, in the data set on HSV-1 TK [3] (setting [5]), the Km was 473 µM. Also, in the data set with HSV-1 TK [3] (substrate thymidine), the “Decrease in kcat for thymidine relative to wild-type” value was determined as 20 fold, the “Increase of Km for thymidine relative to wild-type enzyme” value is given as “approximately 3 fold” and the kcat thymidine stood at 0.003 s⁻¹. For the same substance, the Km with HSV-1 TK [3] (setting [6]) worked out at 3 µM. In addition, the “Nuclear morphology” value in the data set on HCT-116 cells [4] was “fewer swelled nuclei and little evidence of apoptotic nuclei”.
